The values that follow come from ChEMBL document CHEMBL1151641, “Antitumor agents, 71. Nudaphantin, a new cytotoxic germacranolide, and elephantopin from Elephantopus nudatus” (1985).

Structures are written as SMILES. In brackets after ≈: the same amount, converted by molar mass.

Common to all, as to type: functional
Experiment [1] deals with P388. Put plainly: In vivo antileukemic activity against mouse P388 cells at 40 mg/kg relative to control.
For another experiment, the system named is KB. Put plainly: Cytotoxicity against human KB cells.
Experiment [2] deals with P388. Put plainly: In vivo antileukemic activity against mouse P388 cells at 10 mg/kg relative to control.

By T/C is commonly meant the ratio of treated to control. Turning to `C=C(C)C(=O)O[C@H]1CC2=C[C@@H](C[C@@]3(C)O[C@@H]3[C@H]3OC(=O)C(=C)[C@@H]31)OC2=O` [ELEPHANTOPIN], the T/C was found to be 171% in the experiment on P388 [1] and 160% in the experiment on P388 [2]. For the same compound, in the experiment on KB, the ED50 amounted to 0.32 µg/mL (≈ 0.888 µM).

Consider `C=C(C)C(=O)O[C@H]1CC2=C[C@@H](C[C@@]3(C)O[C@@H]3[C@H]3OC(=O)C(=C)[C@@H]31)OC2OCC` (some centres undefined) [NUDAPHANTIN], for which the EC50 in the experiment with KB (Homo sapiens, KB, read-out: ED50 (the source's name)) is 0.31 µg/mL (≈ 0.794 µM).
